Test results: patent US11441181B2, “miRNA-124 as a biomarker” (priority 2013, dated 2022)

Assays:
[1] = system: HIV-1 and HIV-2 T cell-tropic laboratory strains as well as clinical isolates of different subtypes; settings: HIV-1 and HIV-2 laboratory strains and clinical isolates; cited from earlier work
ADA-M R5 HIV = experiment: Treatment of PBMCs infected with ADA-M R5 HIV strain; assay type: cell-based
Procedure: For that purpose, peripheral blood mononuclear cells (PBMCs) of five healthy donors have been isolated by centrifugation on a FICOLL gradient. The cells have then been cultivated at 37° C., 5% CO2 to a density of 1×10^6 cells/mL in RPMI Glutamax medium (Life Technologies Ref 61870-010) supplemented with 10% fetal calf serum (FCS) (Thermo Fischer Ref SV30160.03) 1000 U/mL of IL2 (Peprotech Ref 200-02) and […] of PHA (Roche ref 1249738). Three days later, cells have been pooled and resuspended to a density of 1×10^6 cells/mL in RPMI Glutamax medium supplemented with 10% fetal calf serum (FCS) 1000 U/mL of IL-2 and distributed in 12 wells plates (Falcon Ref 353043) with 1.2 mL/well (4 wells per condition).
HIV-1 infection has been performed with 1 ng of Ada-M R5 HIV strain/well. Cells were treated for 6 days with 1.2 mL/well of 60 μM solution of 8-chloro-N-[4-(trifluoromethoxy)phenyl]quinolin-2-amine or with 0.12% DMSO (Sigma Ref D4818 as negative control).

For FC(F)(F)Oc1ccc(Nc2ccc3cccc(Cl)c3n2)cc1 [8-chloro-N-[4-(trifluoromethoxy)phenyl]quinolin-2-amine], the “inhibition of replication in PBMC, active concentrations” value [1] is given as “nM concentrations range” and the “effect on viruses in infected PBMCs” value (ADA-M R5 HIV) is given as “removal of the viruses”.
